{"source": "patent US20140010884A1", "about": "“DERMATOLOGICAL COMPOSITIONS COMPRISING RETINOIDS, DISPERSED BENZOYL PEROXIDE AND CARRAGEENANS” (GALDERMA RESEARCH & DEVELOPMENT, priority 2008, published 2014)", "origin": "cited, not measured here", "key": {"[1]": {"details": "in PEG 400 and ethanol"}, "[2]": {"details": "for decomposition time: 40° C."}}, "note": "Read-outs that look alike come from different tables or passages of the source.", "data": [{"compound": "CC1=C(/C=C/C(C)=C/C=C/C(C)=C/C(=O)O)C(C)(C)CCC1", "note": "[tretinoin]", "values": [{"measurement": "retinoid decomposing in presence of benzoyl peroxide", "setting": "in 2 hours", "result": 50, "unit": "%"}, {"measurement": "retinoid decomposing in presence of benzoyl peroxide", "setting": "in 24 hours", "result": 95, "unit": "%"}]}, {"compound": "O=C(OOC(=O)c1ccccc1)c1ccccc1", "note": "[benzoyl peroxide]", "values": [{"measurement": "solubility", "setting": "[1]", "result": "particularly soluble"}, {"measurement": "decomposition time", "setting": "[2]; in PEG 400 (0.5 mg/g)", "result": 1.4, "unit": "days"}, {"measurement": "decomposition time", "setting": "[2]; in ethanol", "result": 29, "unit": "days"}, {"measurement": "decomposition time", "setting": "[2]; in propylene glycol", "result": 53, "unit": "days"}, {"measurement": "decomposition in suspension (dispersed form)", "setting": "[2]; in water and propylene glycol, after storing for 90 days", "result": "not decomposed"}]}, {"compound": "COc1ccc(-c2ccc3cc(C(=O)O)ccc3c2)cc1C12CC3CC(CC(C3)C1)C2", "note": "[adapalene, 6-[3-(1-adamantyl)-4-methoxyphenyl]-2-naphthoic acid]", "values": [{"measurement": "decomposition of retinoid in presence of benzoyl peroxide", "setting": "during 24 hours", "result": "no decomposition"}]}]}
